Test results published in publication PMC10876507, “Chelator impact: investigating the pharmacokinetic behavior of copper-64 labeled PD-L1 radioligands” (EJNMMI Radiopharmacy and Chemistry, 2024).
Values joined by “and” are separate entries in the source; they are usually repeats but may differ in a detail not shown here. Equal entries are not always repeated.

What was measured:
PD-L1 [1] = biological target: T1, PD-L1 (Homo sapiens, UniProt Q9NZQ7); assay: Real-time radioligand binding (LigandTracer) on PC3 PD-L1 overexpressing cells, without BSA; set-up: expressed in transfected cells; host or cells: PC3 PD-L1 overexpressing cells
T1 sequence (Q9NZQ7 19-290): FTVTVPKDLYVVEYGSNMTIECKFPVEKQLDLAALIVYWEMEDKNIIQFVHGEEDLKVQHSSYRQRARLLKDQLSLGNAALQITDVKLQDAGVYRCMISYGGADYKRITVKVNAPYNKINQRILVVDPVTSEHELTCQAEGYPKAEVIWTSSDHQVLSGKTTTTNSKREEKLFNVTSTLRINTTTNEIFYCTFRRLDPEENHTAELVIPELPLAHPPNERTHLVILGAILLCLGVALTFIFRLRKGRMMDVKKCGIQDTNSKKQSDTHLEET
Protocol: For the saturation binding experiments, cells were detached with 0.05% Trypsin–EDTA (Gibco, USA), and counted (CASY1 cell counter, Schaerfe System, Reutlingen, Germany). Cells were then diluted in medium to ~ 160,000 cells/mL and seeded in 48 well plates (Falcon Multiwell #353078, ThermoFisher, Karlsruhe, Germany) for at least 2 days prior to saturation binding experiments. For real-time radioligand binding, approximately 400,000 cells/mL were seeded into one side of petri dishes (3 mL, Nunclon, # 150350, ThermoFisher Germany) ~ 24 h before the experiments.
To investigate binding kinetics, including the association rate constant (ka) and dissociation rate constant (kd), as well as the dissociation constant (KD), a real-time assay system (LigandTracer Yellow or LigandTracer White, Ridgeview Instruments AB, Uppsala, Sweden) was utilized. The petri dish contained attached cells in medium (3 mL) on one side, while radioactivity was detected on the opposing side. The petri dish is set upon an inclined base, allowing continuous measurement of alternating portions of the dish for bound radioligand (cells) compared to the background signal (no cells). Binding experiments were carried out at room temperature using CO2-independent medium (Gibco #18045088, ThermoFisher Germany).
The association phase consisted of incubation with two concentrations (30 and 90 nM, each for 90 min) of our ^64Cu-labeled PD-L1-radioligands, binding to PC3 PD-L1 overexpressing cells. Following this, the incubation medium was replaced with fresh medium, and the dissociation phase was monitored for a minimum of 2 h. […] Data were recorded as decay-corrected counts per second (CPS). Subsequently, binding data were analyzed using TraceDrawer software (version 1.9.2, Ridgeview Instruments AB, Uppsala, Sweden). Traces were imported, potential spikes (instances of sudden CPS increases exceeding 100% of the previous data point) were eliminated, and each trace was normalized to its own baseline (set as 0%) and its maximum value (set as 100%).

[2] = test system: PC3 PD-L1 overexpressing and PD-L1-mock tumors; assay: PET imaging in NMRI-nude mice bearing PC3 PD-L1 and PC3 mock tumors; format: in vivo; conditions: for excretion pattern / clearance route in PET: PET 0–25 h p.i.; for SUVmax PC3 PD-L1 tumor / SUVmax PC3 mock tumor / SUVmax kidney / SUVmax liver: tracer only, i.v.
Protocol: Male athymic NMRI-nude mice (Rj:NMRI-Foxn1nu, Janvier Labs, Le Genest-Saint-Isle, France) aged between 8 to 16 weeks were employed for the study. General anesthesia was induced [~ 10% desflurane (Baxter, Deerfield, IL, USA) in 30 vol% oxygen + air] under controlled warming (37°C), and mice were subcutaneously injected with 3–5 × 10^6 PC3 PD-L1 and PC3 mock cells (in 50 µL PBS + 50 µL Matrigel, Corning, Glendale, CA, USA) into the right and left thigh, respectively. The growth of tumors was systematically monitored three times per week through caliper measurements, and animals with tumor sizes above 7 mm were included in the subsequent experiments.
PET and X-ray computed tomography (CT) scans were conducted under general anesthesia using a small animal nanoScan PET/CT scanner (Mediso, Budapest, Hungary), capable of imaging four animals simultaneously. CT images served attenuation correction and anatomical referencing. A total of three individual scans were conducted, corresponding to the timeframes of 0–2 h (dynamic reconstruction), 4–5 h, and 24–25 h (one frame reconstruction) after injection.
The PD-L1 radiotracer candidates (in 300 µL sterile 0.9% NaCl/HEPES buffer, pH 6–7, containing between 7 and 12 MBq, with molar activities exceeding 12 GBq/µmol) were intravenously delivered over 30 s through a catheter in the lateral tail vein. The PET acquisition was initiated simultaneously with the administration.
The acquired three-dimensional list mode data were sorted and binned within a 400–600 keV energy window, forming […] (15 × 10 s, 5 × 30 s, 5 × 60 s, 4 × 300 s, 3 × 600 s, 3 × 1200 s). Reconstruction of the time frames was accomplished using the Tera-TomoTM 3D algorithm, utilizing a voxel size of 0.4 mm and applying corrections for decay, scatter, and attenuation. The images were subjected to post-processing and analysis using Rover software (ABX GmbH, Radeberg, Germany), and were depicted as maximum intensity projections (MIPs) at the specified timepoints and scaling.
Three-dimensional volumes of interest were defined using fixed thresholding at 35–40% of the maximal measured intensity. Standardized uptake values (SUV = [MBq detected activity/mL tissue] / [MBq injected activity/g body weight], in mL/g) were then calculated within the selected volumes of interest, encompassing PD-L1 and mock tumors, as well as metabolizing organs.

PD-L1 [3] = biological target: T1, PD-L1; assay: Saturation binding assay on human PD-L1 transduced PC3 cells (assay buffer with 2.5% BSA); set-up: expressed in transfected cells; host or cells: PC3 cells transduced with human PD-L1 (PC3-PD-L1)
[4] = n-octanol/PBS pH 7.4, shake flask
Protocol: The n-octanol/water distribution coefficients for each radioligand were determined using the shake-flask method. Each experiment was conducted in triplicate. To initiate the experiment, 30 µL of the labeling mixture was combined with 570 µL of PBS (pH 7.4) and 600 µL of n-octanol in a 1.5 mL Eppendorf-Tube. The resulting mixture was shaken at room temperature at 1500 rpm for 5 min before undergoing centrifugation. An aliquot was extracted from each phase, and radioactivity was measured on a γ-counter (ISOMED 2160). Subsequently, mean values were calculated and adjusted for background activity. The log D7.4 value was determined utilizing the equation: logD7.4=logAn-octanol/APBS

[5] = Proteolytic stability in human serum at 37 °C, radio-HPLC; format: in vitro ADME; conditions: 48 h
Protocol: For proteolytic stability studies, a solution of the radiolabeled compound was diluted with human serum in a ratio of 1:10. This mixture then underwent incubation at 37 °C while being shaken at 300 rpm. At each designated timepoint (1, 24 and 48 h), an aliquot was withdrawn and added to a detergent solution (water with 20% v/v EtOH, 5% v/v 5 mM aqueous EDTA, 0.5% v/v Triton X-100, 0.1% m/v saponin, 0.05% v/v 0.5 mM aqueous o-phenanthroline) in a ratio of 1:2 for precipitation of serum proteins. The mixture was cooled on ice for 5 min, followed by centrifugation at 12,000 g for 5 min. A minor portion of the resulting supernatant was subjected to analytical radio-HPLC (reversed-phase, Phenomenex Jupiter 300 C-18, 5 µm, 4.6 × 250 mm) with 10–95% acetonitrile (0.1% TFA) in water (0.1% TFA) in a linear gradient over 15 min, 1 mL/min, γ-detection). The assessment and graphical representations were performed using OriginPro® 9.0.

[6] = tracer +500 nM respective unlabeled compound, 1-2 hour p.i., mice
[7] = tracer +500 nM respective unlabeled compound, 4-5 hour p.i., mice
[8] = tracer +500 nM respective unlabeled compound, 24-25 hour p.i., mice
[9] = 1-2 hour p.i., mice, listed as [64Cu]Cu-15
[10] = 1-2 hour p.i., mice, listed as [64Cu]Cu-17
[11] = 4-5 hour p.i., mice, listed as [64Cu]Cu-17
[12] = 24-25 hour p.i., mice, listed as [64Cu]Cu-17

Structure (SMILES): Cc1c(COc2cc(OCc3cncc(S(C)(=O)=O)c3)c(CN[C@@H](CS(=O)(=O)O)C(=O)NCCS(=O)(=O)O)cc2Br)cccc1-c1cccc(OCc2cn(CCCN3CCN(C(=O)[C@H](CS(=O)(=O)O)NC(=O)CN4CCCN5CCN(CCCN(CC(=O)[O-])CC5)CC4)CC3)nn2)c1C.[64Cu+2] [[^64Cu]Cu-15]
- Kd (PD-L1 [1]; PC3 PD-L1 overexpressing cells, room temperature, without BSA): ~20 nM and 19.1 nM
- ka (PD-L1 [1]; association rate constant, real-time binding): (5.10 ± 0.55) × 10^3 (M × s)^–1
- kd (PD-L1 [1]; dissociation rate constant, real-time binding): (0.96 ± 0.02) × 10^–4 s^–1
- PD-L1 tumor uptake after preinjection of 500 nmol of cold ligand ([2]; blocking, mice): not significantly reduced
- excretion pattern / clearance route in PET ([2]; mice): hepatobiliary excretion pattern
- SUVmax PC3 PD-L1 tumor, blocking ([2]; tracer +500 nM respective unlabeled compound (injected 5 min prior), 1-2 hour p.i., mice): 1.58
- SUVmax PC3 mock tumor, blocking [2, 6]: 1.17
- SUVmax kidney, blocking [2, 6]: 7.41
- SUVmax liver, blocking [2, 6]: 1.49
- SUVmax PC3 PD-L1 tumor, blocking [2, 7]: 0.77
- SUVmax PC3 mock tumor, blocking [2, 7]: 0.57
- SUVmax kidney, blocking [2, 7]: 0.78
- SUVmax liver, blocking [2, 7]: 1.82
- SUVmax PC3 PD-L1 tumor, blocking [2, 8]: 0.91
- SUVmax PC3 mock tumor, blocking [2, 8]: 0.78
- SUVmax kidney, blocking [2, 8]: 0.51
- SUVmax liver, blocking [2, 8]: 0.78
- SUVmax PC3 PD-L1 tumor ([2]; 1-2 hour p.i., mice): 1.03 ± 0.23
- SUVmax PC3 mock tumor ([2]; 1-2 hour p.i., mice): 0.61
- SUVmax kidney ([2]; 1-2 hour p.i., mice): 3.26 ± 0.98
- SUVmax liver ([2]; 1-2 hour p.i., mice): 3.80 ± 0.33
- SUVmax PC3 PD-L1 tumor [2, 9]: 1.03
- SUVmax kidney [2, 9]: 3.26
- SUVmax liver [2, 9]: 3.80
- SUVmax PC3 PD-L1 tumor ([2]; 4-5 hour p.i., mice): 0.66 ± 0.16
- SUVmax PC3 mock tumor ([2]; 4-5 hour p.i., mice): 0.44
- SUVmax kidney ([2]; 4-5 hour p.i., mice): 0.68
- SUVmax liver ([2]; 4-5 hour p.i., mice): 1.41
- SUVmax PC3 PD-L1 tumor ([2]; 4-5 hour p.i., mice, listed as [64Cu]Cu-15): 0.66
- SUVmax PC3 PD-L1 tumor ([2]; 24-25 hour p.i., mice): 0.90 ± 0.09
- SUVmax PC3 mock tumor ([2]; 24-25 hour p.i., mice): 0.76
- SUVmax kidney ([2]; 24-25 hour p.i., mice): 0.48
- SUVmax liver ([2]; 24-25 hour p.i., mice): 1.01
- SUVmax PC3 PD-L1 tumor ([2]; 24-25 hour p.i., mice, listed as [64Cu]Cu-15): 0.90
- Kd (PD-L1 [3]; human PD-L1 transduced PC3 cells, on ice 90 min, PBS + 2.5% w/v BSA): 185 nM
- Bmax (PD-L1 [3]; saturation binding, pmol/mg protein, PC3 PD-L1 cells): 2.58 ± 0.35 pmol/mg
- Log D7.4 [4]: –2.11 ± 0.02
- intact radioligand after incubation in human serum [5]: 88%

Structure (SMILES): Cc1c(COc2cc(OCc3cncc(S(C)(=O)=O)c3)c(CN[C@@H](CS(=O)(=O)O)C(=O)NCCS(=O)(=O)O)cc2Br)cccc1-c1cccc(OCc2cn(CCCN3CCN(C(=O)[C@H](CS(=O)(=O)O)NC(=O)CCCC(=O)NC45CNCCNCC(NC(=O)CCCC(=O)N[C@@H](CS(=O)(=O)O)C(=O)N6CCN(CCCn7cc(COc8cccc(-c9cccc(COc%10cc(OCc%11cncc(S(C)(=O)=O)c%11)c(CN[C@@H](CS(=O)(=O)O)C(=O)NCCS(=O)(=O)O)cc%10Br)c9C)c8C)nn7)CC6)(CNCCNC4)CNCCNC5)CC3)nn2)c1C.[64Cu+2] [[^64Cu]Cu-17]
- contrast of PD-L1 positive tumor to PD-L1 negative tumor ([2]; 24–25 h p.i.): 109%
- excretion pattern / clearance route in PET ([2]; mice): rather renal than hepatobiliary clearance
- SUVmax PC3 PD-L1 tumor ([2]; 1-2 hour p.i., mice): 0.49 ± 0.11
- SUVmax PC3 mock tumor ([2]; 1-2 hour p.i., mice): 0.31
- SUVmax kidney ([2]; 1-2 hour p.i., mice): 1.32 ± 0.47
- SUVmax liver ([2]; 1-2 hour p.i., mice): 17.0 ± 1.48
- SUVmax PC3 PD-L1 tumor [2, 10]: 0.49
- SUVmax kidney [2, 10]: 1.32
- SUVmax liver [2, 10]: 17.03
- SUVmax PC3 PD-L1 tumor ([2]; 4-5 hour p.i., mice): 0.81
- SUVmax PC3 mock tumor ([2]; 4-5 hour p.i., mice): 0.50
- SUVmax kidney ([2]; 4-5 hour p.i., mice): 2.18 ± 0.80
- SUVmax liver ([2]; 4-5 hour p.i., mice): 14.4 ± 1.26
- SUVmax kidney [2, 11]: 2.18
- SUVmax liver [2, 11]: 14.35
- SUVmax PC3 PD-L1 tumor ([2]; 24-25 hour p.i., mice): 2.47 ± 1.04
- SUVmax PC3 mock tumor ([2]; 24-25 hour p.i., mice): 1.18
- SUVmax kidney ([2]; 24-25 hour p.i., mice): 2.40 ± 0.60
- SUVmax liver ([2]; 24-25 hour p.i., mice): 8.62 ± 0.84
- SUVmax PC3 PD-L1 tumor [2, 12]: 2.47
- SUVmax kidney [2, 12]: 2.40
- SUVmax liver [2, 12]: 8.62
- intact radioligand after incubation in human serum [5]: 86%
